Reference: ChEMBL document CHEMBL1909046, “DrugMatrix in vitro pharmacology data”

Biological target: Glycine receptor (Rattus norvegicus, UniProt P07727+P20781+P22771+P24524)
Assay type: cell membranes, Wistar, Spinal cord, Membrane

Chain of Glycine receptor (P22771 whole entry): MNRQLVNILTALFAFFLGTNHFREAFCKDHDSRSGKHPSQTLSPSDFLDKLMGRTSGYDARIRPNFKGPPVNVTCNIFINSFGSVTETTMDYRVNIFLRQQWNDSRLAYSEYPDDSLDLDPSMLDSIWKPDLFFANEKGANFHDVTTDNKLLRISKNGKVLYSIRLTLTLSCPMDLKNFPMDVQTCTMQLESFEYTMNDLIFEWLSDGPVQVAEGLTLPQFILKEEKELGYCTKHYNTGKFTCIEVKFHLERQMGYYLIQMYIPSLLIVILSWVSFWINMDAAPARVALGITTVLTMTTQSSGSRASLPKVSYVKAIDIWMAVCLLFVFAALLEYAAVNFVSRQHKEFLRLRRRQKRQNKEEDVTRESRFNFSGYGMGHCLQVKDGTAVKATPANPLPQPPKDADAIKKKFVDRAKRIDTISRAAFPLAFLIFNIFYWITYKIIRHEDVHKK
Chain of Glycine receptor (P24524 whole entry): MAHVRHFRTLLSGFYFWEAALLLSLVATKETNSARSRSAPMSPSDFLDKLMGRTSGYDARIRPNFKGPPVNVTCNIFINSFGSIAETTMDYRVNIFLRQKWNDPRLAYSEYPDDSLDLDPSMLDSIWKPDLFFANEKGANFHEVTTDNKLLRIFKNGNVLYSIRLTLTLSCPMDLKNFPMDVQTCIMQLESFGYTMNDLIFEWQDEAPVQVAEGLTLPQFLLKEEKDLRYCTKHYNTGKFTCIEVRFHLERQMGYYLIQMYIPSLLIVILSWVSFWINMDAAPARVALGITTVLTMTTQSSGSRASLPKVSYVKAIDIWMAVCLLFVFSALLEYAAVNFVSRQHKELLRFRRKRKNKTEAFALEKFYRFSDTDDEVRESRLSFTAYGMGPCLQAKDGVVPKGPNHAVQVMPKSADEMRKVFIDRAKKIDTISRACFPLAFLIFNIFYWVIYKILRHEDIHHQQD
Chain of Glycine receptor (P07727 whole entry): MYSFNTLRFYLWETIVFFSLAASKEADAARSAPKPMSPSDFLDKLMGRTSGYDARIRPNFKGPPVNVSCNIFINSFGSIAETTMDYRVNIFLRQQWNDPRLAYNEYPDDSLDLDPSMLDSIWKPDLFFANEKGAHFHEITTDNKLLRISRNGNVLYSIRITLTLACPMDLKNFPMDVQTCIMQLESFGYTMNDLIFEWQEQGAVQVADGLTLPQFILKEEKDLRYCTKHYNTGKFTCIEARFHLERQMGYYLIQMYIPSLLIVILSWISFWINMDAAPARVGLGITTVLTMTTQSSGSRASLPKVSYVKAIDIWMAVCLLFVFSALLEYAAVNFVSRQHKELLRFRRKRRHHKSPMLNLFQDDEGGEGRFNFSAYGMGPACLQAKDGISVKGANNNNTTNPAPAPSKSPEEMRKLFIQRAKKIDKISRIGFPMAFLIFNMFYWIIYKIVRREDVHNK
Chain of Glycine receptor (P20781 whole entry): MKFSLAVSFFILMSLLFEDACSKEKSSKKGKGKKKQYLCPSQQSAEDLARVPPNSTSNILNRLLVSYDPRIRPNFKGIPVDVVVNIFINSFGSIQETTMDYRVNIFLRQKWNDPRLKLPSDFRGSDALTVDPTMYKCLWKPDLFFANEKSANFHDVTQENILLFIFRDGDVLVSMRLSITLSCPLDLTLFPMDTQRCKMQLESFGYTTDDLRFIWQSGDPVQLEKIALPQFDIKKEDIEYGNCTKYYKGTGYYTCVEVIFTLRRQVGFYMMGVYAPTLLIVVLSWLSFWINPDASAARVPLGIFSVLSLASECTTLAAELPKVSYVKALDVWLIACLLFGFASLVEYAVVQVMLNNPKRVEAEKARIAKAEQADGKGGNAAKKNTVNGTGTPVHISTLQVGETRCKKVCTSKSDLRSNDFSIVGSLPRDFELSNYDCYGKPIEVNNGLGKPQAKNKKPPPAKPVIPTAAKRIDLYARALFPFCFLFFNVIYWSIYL

CC[C@H](C)[C@H]1O[C@]2(C=C[C@@H]1C)C[C@@H]1C[C@@H](C/C=C(\C)[C@@H](O[C@H]3C[C@H](OC)[C@@H](O[C@H]4C[C@H](OC)[C@@H](O)[C@H](C)O4)[C@H](C)O3)[C@@H](C)/C=C/C=C3\CO[C@@H]4[C@H](O)C(C)=C[C@@H](C(=O)O1)[C@]34O)O2.CO[C@H]1C[C@H](O[C@H]2[C@H](C)O[C@@H](O[C@@H]3/C(C)=C/C[C@@H]4C[C@@H](C[C@]5(C=C[C@H](C)[C@@H](C(C)C)O5)O4)OC(=O)[C@@H]4C=C(C)[C@@H](O)[C@H]5OC/C(=C\C=C\[C@@H]3C)[C@]54O)C[C@@H]2OC)O[C@@H](C)[C@@H]1O [ABAMECTIN]
IC50: 132 nM
Ki: 75 nM
